Reference: patent US20050196753A1, “Human coactivator-associated arginine methyltransferase 1 (hCARM1)” (priority 2002, published 2005)

Target: T1, hCARM1 (Homo sapiens, UniProt Q86X55)
T1 construct: evaluate whether the cloned full-length hCARM1 had methylating activity; made in house; host or cells: baculovirus infected insect cells
T1 sequence (Q86X55 1-608): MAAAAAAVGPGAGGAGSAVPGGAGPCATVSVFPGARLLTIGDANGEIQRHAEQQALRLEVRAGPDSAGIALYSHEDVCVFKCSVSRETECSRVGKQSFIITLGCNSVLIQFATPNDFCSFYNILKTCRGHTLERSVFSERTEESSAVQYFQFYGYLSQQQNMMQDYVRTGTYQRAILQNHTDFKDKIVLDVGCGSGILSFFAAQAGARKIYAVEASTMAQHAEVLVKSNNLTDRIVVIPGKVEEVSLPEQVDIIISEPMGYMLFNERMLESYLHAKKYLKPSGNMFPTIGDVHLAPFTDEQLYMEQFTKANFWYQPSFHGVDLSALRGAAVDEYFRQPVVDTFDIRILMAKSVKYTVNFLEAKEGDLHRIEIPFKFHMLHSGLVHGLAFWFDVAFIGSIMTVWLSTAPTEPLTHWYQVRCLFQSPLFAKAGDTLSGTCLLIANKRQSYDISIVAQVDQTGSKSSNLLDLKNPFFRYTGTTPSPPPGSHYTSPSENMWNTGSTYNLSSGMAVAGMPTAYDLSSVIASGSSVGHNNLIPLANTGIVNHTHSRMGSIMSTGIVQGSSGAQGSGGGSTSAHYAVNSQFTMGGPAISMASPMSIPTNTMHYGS
Experiment: Methylation assay: inhibition of hCARM1 mediated methylation of Histone H3
Type: biochemical
Conditions: Histone H3 substrate, 30° C. for 1 hr, SDS-PAGE/film
Experimental: Methylation assay protocol: Reactions were performed in IX methylation buffer containing 20 mM Tris.HCl, pH 8.0, 200 mM NaCl and 0.4 mM EDTA. Reactions were assembled with 2.5 ug of Histone H3 and increasing amounts of hCARM1 (0.25 ug, 0.5 ug, 1.25 ug, 2.5 ug, 3.75 ug, 5 ug, or 7.5 ug). A mock reaction where hCARM1 was omitted was used as the negative control. Reactions were incubated at 30° C. for 1 hr. prior to loading on a 10-20% gradient SDS-PAGE. The gel was fixed, dried and exposed to film.
A methylation reaction was performed in order to evaluate whether the cloned full-length hCARM1 had methylating activity. Mouse CARM1 has been previously shown to specifically methylate Histone H3 in vitro and in vivo.

## N[C@@H](CCS)C(=O)O [homocysteine]
  inhibition of hCARM1 mediated methylation: effectively inhibited
